# Read-outs that look alike come from different tables or passages of the source.
# Tests used:
# [1] = system: prepubertal children with achondroplasia; settings: for AGV: 100 μg CNP-38/kg/week group
# Description: The study enrolled a minimum of 60 male and female prepubertal children with ACH aged 2 to 10 years old. The clinical trial is listed on www.clinicaltrials.gov under the ClinicalTrials.gov Identifier: NCT04085523. The objectives of the study were as follow:
# This trial is a multicenter trial consisting of two treatment periods.
# Height of subjects enrolled in the study of Example 3 was measured using a wall-mounted stadiometer. The same equipment was used at all visits for the same child. All instruments were calibrated as required by local requirements or per instrument manufacturer guidance prior to use.
# [2] = system: healthy adult male subjects
substance,measurement,setting,value
Navepegritide [Compound (1)],"AGV, LS Mean","[1]; 6 μg/kg/week, 52 weeks, n = 10, 95% CI [3.34, 4.84], p 0.6004 vs pooled placebo (4.35)","4.09, n = 10 cm/year"
same,"Δ Height SDS (ACH-specific height SDS), LS Mean","[1]; 6 μg/kg/week, n = 10, 95% CI [−0.26, 0.17], p 0.8207 vs pooled placebo (−0.08)","−0.04, n = 10"
same,"AGV, LS Mean","[1]; 20 μg/kg/week, 52 weeks, n = 11, 95% CI [3.82, 5.22], p 0.7022 vs pooled placebo","4.52, n = 11 cm/year"
same,"Δ Height SDS (ACH-specific height SDS), LS Mean","[1]; 20 μg/kg/week, n = 11, 95% CI [−0.17, 0.23], p 0.4107 vs pooled placebo","0.03, n = 11"
same,"AGV, LS Mean","[1]; 50 μg/kg/week, 52 weeks, n = 10, 95% CI [4.43, 5.90], p 0.0849 vs pooled placebo","5.16, n = 10 cm/year"
same,"Δ Height SDS (ACH-specific height SDS), LS Mean","[1]; 50 μg/kg/week, n = 10, 95% CI [−0.10, 0.32], p 0.1660 vs pooled placebo","0.11, n = 10"
same,AGV,[1]; 0 to 6 months,5.167 cm/year
same,AGV,[1]; time period 6 to 12 months,5.696 cm/year
same,"AGV, LS Mean","[1]; 100 μg/kg/week, 52 weeks, n = 11, 95% CI [4.74, 6.11], p 0.0218 vs pooled placebo","5.42, n = 11 cm/year"
same,"AGV, LS Mean","[1]; 100 μg/kg/week, 52 weeks, n = 11, 95% CI [4.74, 6.11], p 0.0218 vs pooled placebo, listed as compound (1)",5.42 cm/year
same,"Δ Height SDS (ACH-specific height SDS), LS Mean","[1]; 100 μg/kg/week, n = 11, 95% CI [0.02, 0.41], p 0.0283 vs pooled placebo","0.22, n = 11"
same,growth in Open Label Extension,"[1]; 46 children switched from placebo or lower dose to 100 μg/kg/week, after one year",improved growth
same,"AGV, LS Mean","[1]; Age < 5 years old, 6 μg/kg/week, n = 3, 95% CI [2.52, 6.10]","4.31, n = 3 cm/year"
same,"AGV, LS Mean","[1]; Age < 5 years old, 20 μg/kg/week, n = 5, 95% CI [3.30, 6.15]","4.72, n = 5 cm/year"
same,"AGV, LS Mean","[1]; Age < 5 years old, 50 μg/kg/week, n = 5, 95% CI [3.62, 6.52]","5.07, n = 5 cm/year"
same,"AGV, LS Mean","[1]; Age < 5 years old, 100 μg/kg/week, n = 3, 95% CI [4.03, 7.87]","5.95, n = 3 cm/year"
same,"AGV, LS Mean","[1]; Age ≥ 5 years old, 6 μg/kg/week, n = 7, 95% CI [2.87, 4.71]","3.79, n = 7 cm/year"
same,"AGV, LS Mean","[1]; Age ≥ 5 years old, 20 μg/kg/week, n = 6, 95% CI [3.43, 5.15]","4.29, n = 6 cm/year"
same,"AGV, LS Mean","[1]; Age ≥ 5 years old, 50 μg/kg/week, n = 5, 95% CI [4.39, 6.26]","5.33, n = 5 cm/year"
same,"AGV, LS Mean","[1]; Age ≥ 5 years old, 100 μg/kg/week, n = 8, 95% CI [4.35, 5.90]","5.12, n = 8 cm/year"
same,"blood pressure, heart rate, or safety laboratory test results",[2]; all investigated doses,No clinically relevant dose-dependent trends were observed
same,mean apparent t1/2 of free CNP-38,"[2]; single s.c. dose up to 150 μg CNP/kg, dose-independent",120 h
same,immunogenic response,[2]; single s.c. doses,no evidence of immunogenic response
same,local tolerability findings,[2]; single s.c. doses,predominantly mild to moderate redness
same,most commonly reported (≥10% of subjects) treatment-emergent adverse events,[2]; single s.c. doses,"headache, contact dermatitis, postural dizziness, (orthostatic) tachycardia, dizziness, and orthostatic hypotension"
same,serious adverse effects or deaths,[2]; single s.c. doses,no serious adverse effects (AEs) or deaths reported
same,severity of most TEAEs,[2]; single s.c. doses,mild or moderate
same,tolerability,"[2]; single s.c. doses up to 150 μg CNP/kg, all investigated doses",generally well tolerated

# Source: patent publication US20260263563A1, “Method of Treatment of a Thoracolumbar Deformity in a Human Subject with Achondroplasia” (Ascendis Pharma Growth Disorders A/S, priority 2023, published 2026)
